Experimental data as given in a melting point compilation (Tetko et al.; mined from patent text by program, amines drawn as free bases though some values may be those of a salt).

Structure (SMILES) | melting point
CCNC(=O)Nc1cc(-c2sc(CC)nc2-c2cccc(C)c2)ccn1 | 160 to 162 °C
COc1cc(C(F)(F)F)nn1-c1ccc(NC(=O)c2ccncc2F)cc1 | 160 to 161 °C
CCCc1c(OCCCCCCC2CC(=O)c3ccc(OCC(=O)OC)c(CCC)c3O2)ccc(C(C)=O)c1O (stereo not given) | 121 to 124 °C
CCN(CC)C(=O)c1cc(C)nc([N+](=O)[O-])c1 | 90 to 91 °C
CN(C)Cc1ccc(CSCCN=CNS(=O)(=O)c2ccc(Cl)cc2)o1 | 93 to 96 °C
CC(=O)NC[C@H]1CN(c2ccc(-n3cc(-c4ccc(C)cc4)cn3)c(F)c2)C(=O)O1 | 222 to 223 °C
O=C1NC2CCC1C(O)C2 (stereo not given) | 115 to 120 °C
CCCCCc1cc2c(cc1C#C/C=C/C(C)=C/C(=O)O)C(C)(C)CCC2(C)C | 155 to 156 °C
COc1ccc(OCc2c(C)cncc2C)c2[nH]c(C3CC3)nc12 | 152 to 155 °C
CCc1[nH]n(-c2c(Cl)cc(Cl)cc2Cl)c2nc(Cc3cccc(OC)c3)nc(=O)c1-2 | 235 to 238 °C
CCOC(=O)C(C(=O)Nc1ccc(Br)cc1C)[N+](=O)[O-] (stereo not given) | 126 to 129 °C
O=C1Nc2ccc([N+](=O)[O-])cc2C1(Br)Br | 205 °C
N#Cc1cnn2c(C(F)(F)F)cc(-c3ccc(F)c(Cl)c3)nc12 | 190 °C
Cc1cc2ncc(Nc3ccc(Cl)c(Cl)c3)nc2cc1C | 229 °C
CCCCCCCCCCCCCCCOc1ccc(C(C)=O)o1 | 67 to 68 °C
COc1ccc(Nc2ncccc2NS(=O)(=O)c2ccc(OC)cc2)cc1 | 145 to 147 °C
CCN(CC)C(=O)c1ncccc1OC(=S)N(CC)CC | 70 to 72 °C
COCc1cc(OC)c(C=O)c(OC)c1 | 72 to 76 °C
Cc1cccc(-c2[nH]c(C(C)C)nc2-c2cccc(-c3cccnc3)c2)n1 | 74 to 77 °C
CCN(CCNS(C)(=O)=O)c1ccc(N)c(C)c1 | 128 to 130 °C
COc1ccc(C=O)cc1-c1nsc2ccc(-n3c(=O)cc(C(F)(F)F)n(C)c3=O)cc12 | 118 to 120 °C
C#CCOc1cc(-n2c(=O)nc(N(C)C)n(C)c2=O)c(F)cc1Cl | 61 to 65 °C
CCN1CC(O)CC1=O (stereo not given) | 53 to 54 °C

Structure (SMILES) | melting point
COc1ccc(C(O)(c2ccc3c(c2)C(c2cccc(Cl)c2)Nc2nnnn2-3)c2cncn2C)cc1 (stereo not given) | 220 °C
Cc1cccc(-c2[nH]c(C(C)C)nc2-c2ccc(F)c(-c3c[nH]c(C)n3)c2)n1 | 230 to 234 °C
CC(=O)COc1ccc(Oc2ccc(F)cc2)cc1 | 56 to 57 °C
CCCc1nc2nc3cc(Cl)ccc3nc2[nH]1 | 280 to 282 °C
CCCc1nn(C)c2c1N=C(c1cc(/C=C/C(=O)N(C)C)ccc1OCC)NC2 | 219 to 221 °C
CCCCCCCCCCCCc1cc(N)on1 | 48.5 to 49.5 °C
c1cn(CCCc2ccc(OCc3coc(-c4ccoc4)n3)cc2)cn1 | 85 to 87 °C
Cc1cc(C(C)(C)C)c(O)c(C)c1CSP(=S)(C1CCCCC1)C1CCCCC1 | 113 to 116 °C
CC(C)S(=O)(=O)C1=CC=CN(Cl)C1 | 82 to 84 °C
C[C@H]1CN(c2c(F)cc3c(=O)c(C(=O)O)cn(CCF)c3c2F)C[C@H]1NC(=O)OC(C)(C)C (relative stereo) | 217 to 219 °C
CCCCn1c(N)c(N=O)c(=O)n(CC2CCCCC2)c1=O | 229 to 230 °C
CCCN(C)c1nn(C)c(=O)c2c1ccn2-c1c(C)cc(C)cc1C | 105 to 108 °C
CC(C(O)=S)c1sc(S(N)(=O)=O)cc1[N+](=O)[O-] (stereo not given) | 154 to 155 °C
Cc1ccc2c(c1)c(O)c(C(=O)NC1CCCCC1)c(=O)n2Cc1ccc(F)cc1 | 156 °C
CN(CCc1cccc(OCc2ccccc2)c1)c1cnc(-c2ccccc2)c(-c2ccccc2)n1 | 78 to 78.5 °C
O=c1[nH]c2cc(Cl)c(Cl)cc2n1CCCBr | 198 °C
CCCCNc1cccc(-c2ccnc3c(C(=O)c4cccs4)cnn23)c1 | 87 to 91 °C
CN(C)CCNc1cc(Sc2ccc(Cl)cc2)nc(-c2ccc(Cl)c(Cl)c2)n1 | 99 to 103 °C
NCCNC(=O)COc1ccc(C2=NNC(=O)CC2)cc1Cl | 168 to 170 °C
COc1ccc(C2=NC(C)(C)CO2)cc1N | 108 to 110 °C
C[C@@H]1N(c2ccc(C#N)c(C(F)(F)F)c2)C(=O)C[C@]1(C)O | 134 to 137 °C
CC(=O)OC(OC(C)=O)c1ccc2occ(C#N)c(=O)c2c1 | 185 to 186 °C
CC(=O)Oc1ccc(-c2c(CBr)c3ccc(OC(C)=O)cc3oc2=O)c(OC(C)=O)c1 | 171 to 172 °C

Other lines, results leading:

melting point | Structure (SMILES)
136 to 138 °C | CC(O)C(C)(C)NC(=S)NC(=O)c1ccccc1 (stereo not given)
268 to 269 °C | Cc1[nH]n(C2CCCO2)c2nc(-c3ccncc3)nc(=O)c1-2 (stereo not given)
251 to 256 °C | O=C(O)c1cn(C2CSC2)c2cc(F)c(F)cc2c1=O
184 to 185 °C | CCOc1ccc2c(c1)CCN(C(=O)OCc1ccccc1)C21CCC(C(=O)O)(C(=O)O)CC1
133 to 135 °C | Cc1ccc(S(=O)(=O)Nc2cccc(-c3cc(O)c(SCCc4ccccc4)c(=O)o3)c2)cc1
179 to 181 °C | Cc1ccc(Cn2cccc2C(=O)CC(=O)C(=O)O)cc1
108 to 110 °C | CC(C)Nc1cccnc1N1CCN(C(=O)c2ccc(C(=O)NCC3CCCO3)cn2)CC1 (stereo not given)
100 °C | Cc1c(C(=O)c2cccs2)cccc1C(C)C(=O)O (stereo not given)
238 to 240 °C | CN1CCN(c2ccc(NC(=O)n3ccc4cc(Oc5cc(CC(N)=O)ncn5)ccc43)cc2C(F)(F)F)CC1
220 °C | OC(Cn1ccnc1)(c1ccc(F)cc1)c1ccc(-c2ccccc2)cc1 (stereo not given)
223 to 225 °C | O=c1[nH]c(=Cc2ccc(OCc3ccccc3)cn2)c(=O)[nH]c1=CCc1ccccc1
111 to 112 °C | CC(C)c1ccc2nc3ccc(C(=O)OCCCc4cccnc4)cc3c(=O)n2c1
82 to 83 °C | O=Cc1ccc(-c2ccccc2)c(F)c1
88 to 100 °C | O=C1N(CC2CN(Cc3ccccc3)CCO2)c2ccccc2C12COc1cc3c(cc12)OCCO3 (stereo not given)
55 to 57 °C | Cc1oc(-c2ccccc2)nc1COc1cccc(C#CC(C)n2oc(=O)[nH]c2=O)c1 (stereo not given)
126 °C | O=C(OCC1=CCN(Cc2c[nH]c3cccnc23)CC1)c1ccccc1
208 to 209 °C | CCc1[nH]n(C2CCCC2)c2nc(-c3ccccc3OCC(=O)O)nc(=O)c1-2
146 to 148 °C | NS(=O)(=O)c1cccc2c1CSC2
247 to 249 °C | C1=c2ccccc2=NCO1
198 °C | O=C1Nc2cccnc2N(C(=O)NCCN2CCCCC2CN2CCCC2)c2ccccc21 (stereo not given)
168 °C | CC(=O)OC1CSC(Oc2cncc(-c3cc4ccccc4s3)c2)C(OC(C)=O)C1OC(C)=O (stereo not given)
88.5 °C | O=C(C(Cl)c1ccccc1)N1CCCC1 (stereo not given)
122 to 125 °C | COc1cc(Cl)c2c(=O)c(N3CCCCC3)coc2c1
105 °C | O=C(O)CCCCCCCCCCCCCCCCC(=O)n1nnc2ccccc21
241 to 242 °C | Cc1noc(NC(=O)N2CCN(c3nccc(-c4cc(F)cc(F)c4)n3)CC2)c1C
119 to 121 °C | COCC(=O)OCc1c(C)n(Cc2ccccc2)c2c(OCc3ccc(F)cc3)nncc12
189 to 192 °C | CCOc1c(-c2nnn[nH]2)oc2c3ccccc3n(-c3ccccc3)c12

melting point | Structure (SMILES)
97 to 98 °C | CC(C)=CCON1C(=O)c2ccccc2C1=O
215 to 217 °C | NC(=O)CCn1c(=S)sc2ccc(Cl)cc21
105 to 108 °C | COc1cc2sc(CC(C)(Oc3ccc(C(C)C)cc3)C(=O)O)cc2c(Cl)c1OC (stereo not given)
231 to 232 °C | Cn1c(C(F)(F)F)cc(=O)n(-c2cc(S(=O)(=O)NC(=O)OCc3ccccc3)c(Cl)cc2F)c1=O
154 °C | COCCNC(=O)c1ccc(NS(=O)(=O)c2ccc(F)cc2)cn1
181 to 182 °C | Oc1ccc(-n2c(-c3ccccc3)cc3c2CCCC3)cc1
92 to 94 °C | Cc1nccc(C(=O)O)c1-c1nc(-c2ccc(Cl)cc2)cs1
108 to 110 °C | CCOC(=O)c1cc(Br)c(OCCO)c(-c2cccc(Cl)c2)c1
272 to 275 °C | Cc1cc(-c2ccc(C(F)(F)F)cc2)nc(-c2ccc(C(=O)O)cc2)n1
138 to 141 °C | CCNC1(c2ccccc2Cl)C(=O)N(Cc2ccc(C(=O)NC(C)(CO)CO)cc2)c2ccc(Cl)cc21 (stereo not given)
141 °C | CC1(C)COC(C(=O)/C=C/[C@@H]2[C@H]3CC(=O)O[C@H]3C[C@H]2OC(=O)c2ccccc2)OC1
184 to 185 °C | COc1cc2c(cc1OC)C(Oc1ccccc1)CN(NC(=O)c1cc(Cl)cc(Cl)c1)CC2 (stereo not given)
105 to 106 °C | O=C(Nc1ccc(/C=C/CO)c(F)c1)OCc1ccccc1
137 °C | Cc1c(N)cccc1OC1CCN(C(=O)OC(C)(C)C)C1 (stereo not given)
126 °C | O=C1NC(=O)C2(c3cc(Oc4ccc([N+](=O)[O-])cc4)c(Cl)cc3F)CCCCC12 (stereo not given)
118 to 119 °C | CC(C)(C)OC(=O)NCC1=C(CC(=O)O)CCCC1
129 to 130 °C | Cc1cc(SCCC#Cc2ccc(C(F)(F)F)cc2)ccc1OCC(=O)O
189 °C | NNC(=O)c1ncn2ccccc12
77.5 to 79 °C | CCc1cn(C(CC)C(=O)N(C)C)nc1-c1ccccc1 (stereo not given)
168 to 170 °C | CCOCc1nc2c(N)nc3cccnc3c2n1CCCCCC(=O)N1CCOCC1
155 to 157 °C | CC(C)c1cc(Cl)cc(C(C)C)c1NC(=O)NS(=O)(=O)c1cccc(C2(C)OCCO2)c1
60 to 62 °C | CNn1cc(-c2ccccc2)c2ccccc21
144 °C | FC(F)(F)c1cccc(C(c2ccc3ncccc3c2Cl)n2cncn2)c1 (stereo not given)
117 to 118 °C | CC1CCN(c2nccc(Oc3ccc(NC(=O)c4cc(F)cc(N5CCOCC5)c4)c4ccccc34)n2)CC1
160 °C | COc1ccc2c(c1)-c1nc(-c3ccccc3C)c(N)n1CC2
98 to 99 °C | COc1cccc(CC(=O)O)c1OCCCc1cc(OC(C)C)nn1Cc1ccc(C(F)(F)F)cc1Cl
72 to 75 °C | OCc1cc(C2CN(CCCCCCOCCCCc3ccccc3)CO2)ccc1O (racemic)
